Measurements from patent US12102638B2 (Urovant Sciences GmbH, priority 2017, dated 2024).
Where “and” joins values, the source holds several entries; their conditions need not be identical. Equal entries are not always repeated. Where two headings read alike, the source gives them in different places.

Key:
[1] = system: human plasma proteins; assay: plasma protein binding; type: in vitro ADME
[2] = single rising oral dose Phase 1 pharmacokinetics in healthy subjects; type: in vivo, human; conditions: for AUC(0-t): read-out: AUC0-24
Protocol: All subjects were healthy adults. […] Systemic exposures were greater than dose proportional up to 600 mg.

[3] = relative bioequivalence of aqueous and non-aqueous tablets; type: in vivo, human; conditions: 50 mg
From the text: An open-label, single-dose, randomized, two-period, two-treatment, two-sequence, crossover Phase 1 study evaluated the relative bioequivalence of two types of tablets with slightly different composition: aqueous tablet (test) and non-aqueous tablet (reference).

[4] = single-dose PK in patients with moderate hepatic impairment; type: in vivo, human; conditions: single 100 mg
[5] = system: healthy subjects; assay: thorough QT single oral dose study; type: in vivo, human
[6] = system: healthy subjects; assay: maximum MA4 heart rate in multiple-dose Phase 1 study; type: in vivo, human; conditions: Day 14
Protocol: More intensive assessments of heart rate and blood pressure were performed in healthy volunteers in several Phase 1 studies. […] Doses ranged from 25 to 400 mg once daily for 7 to 28 days depending on the cohort. Least squares mean and 90% confidence intervals of maximum change from baseline in moving average of heart rate over 4 hours postdose (MA4 HR) are presented in Table 17.

[7] = system: healthy subjects
From the text: Safety data from 16 Phase 1 studies, which include 15 completed Phase 1 studies and 1 study that was terminated early (this study was terminated for reasons unrelated to efficacy or safety) was collected.

[8] = drug interaction study of vibegron 75 mg and rifampin; conditions: for CL/F, geometric mean / V/F, geometric mean: single 75 mg
[9] = male, human, plasma, oral, 50 mg, single 50 mg, healthy young males
[10] = male, human, plasma, oral, 50 mg, single 50 mg, healthy young males, Japanese

O=C(Nc1ccc(C[C@@H]2CC[C@H]([C@H](O)c3ccccc3)N2)cc1)[C@@H]1CCc2nccc(=O)n21 [vibegron, (6S)—N-[4-[[(2S,5R)-5-[(R)-hydroxy(phenyl)methyl]pyrrolidin-2-yl]methyl]phenyl]-4-oxo-7,8-dihydro-6H-pyrrolo[1,2-a]pyrimidine-6-carboxamide]
bound to human plasma proteins [1]: approximately 49% | unbound in plasma [1]: 49% | Cmax [2, 9]: 31.7 ± 35 ng/mL | Cmax [2, 10]: 62.2 ± 20.4 ng/mL | AUC(0-t) [2, 10]: 385 ± 136 ng·h/mL | AUC(0-inf) ([2]; male, human, plasma, oral, 50 mg, single 50 mg, healthy young males, Japanese, read-out: AUC0-inf): 885 ± 241 ng·h/mL | AUC(0-t) [2, 9]: 219 ± 123 ng·h/mL | AUC(0-inf) ([2]; male, human, plasma, oral, 50 mg, single 50 mg, healthy young males, read-out: AUC0-inf): 551 ± 262 ng·h/mL | t1/2, harmonic mean ± pseudo SD ([2]; single 20 mg, healthy young males): 64.2 ± 12.6 h | t1/2, harmonic mean ± pseudo SD ([2]; single 50 mg, Elderly Male and Female): 92 h and 92.1 ± 15.9 h | t1/2, harmonic mean ± pseudo SD ([2]; single 50 mg, healthy young males, Japanese): 64.4 ± 8.7 h | t1/2, harmonic mean ± pseudo SD ([2]; single 100 mg, healthy young males): 72.8 ± 10.8 h | AUC(0-inf) ([2]; single 150 mg, healthy young males): 2270 ± 911 ng·h/mL | t1/2, harmonic mean ± pseudo SD ([2]; single 200 mg, healthy young males): 75.3 ± 9.1 h | t1/2, harmonic mean ± pseudo SD ([2]; single 200 mg, healthy young males, Japanese): 58.4 ± 9.0 h | t1/2, harmonic mean ± pseudo SD ([2]; single 300 mg, healthy young males, Japanese): 59.7 ± 9.2 h | t1/2, harmonic mean ± pseudo SD ([2]; single 450 mg, healthy young males): 60.0 ± 9.4 h | AUC0-inf GMR test to reference tablet [3]: 100.2% | Cmax GMR test to reference tablet [3]: 107.7% | CL/F, geometric mean ([4]; Healthy Matched Control Subjects): 68.3 L/h | CL/F, geometric mean ([4]; Moderate Hepatic Impairment): 56.0 L/h | AUC, mean ± SD ([5]; single 200 mg): 2430 ± 974 ng·h/mL | Maximum Mean Placebo Corrected Change from Baseline Diastolic BP ([5]; single 200 mg): 2.42 mmHg | Maximum Mean Placebo Corrected Change from Baseline RR interval ([5]; single 200 mg): -84.36 ms | Maximum Mean Placebo Corrected Change from Baseline Systolic BP ([5]; single 200 mg): 2.20 mmHg | upper limits of the 90% CIs of all QTcF mean differences from placebo ([5]; single 200 mg and 400 mg): < 10 ms | QTcF LS mean difference from placebo ([5]; single 200 mg, 0.5 hour): 2.90 ms | QTcF change from baseline, LS mean ([5]; single 200 mg, 0.5 hour): 1.90 ms | QTcF change from baseline, LS mean ([5]; single 200 mg, 1 hour): 4.87 ms | QTcF LS mean difference from placebo ([5]; single 200 mg, 1 hour (maximum)): 4.98 (3.07, 6.88) msec and 4.98 msec | QTcF LS mean difference from placebo ([5]; single 200 mg, 2 hour): 2.14 ms | QTcF change from baseline, LS mean ([5]; single 200 mg, 2 hour): 2.06 ms | QTcF LS mean difference from placebo ([5]; single 200 mg, 3 hour): 0.40 ms | QTcF change from baseline, LS mean ([5]; single 200 mg, 3 hour): 1.14 ms | QTcF LS mean difference from placebo ([5]; single 200 mg, 4 hour): -0.83 ms | QTcF change from baseline, LS mean ([5]; single 200 mg, 4 hour): -0.40 ms | QTcF LS mean difference from placebo ([5]; single 200 mg, 6 hour): -1.26 ms | QTcF change from baseline, LS mean ([5]; single 200 mg, 6 hour): -6.89 ms | QTcF LS mean difference from placebo ([5]; single 200 mg, 8 hour): -1.24 ms | QTcF change from baseline, LS mean ([5]; single 200 mg, 8 hour): -9.59 ms | QTcF LS mean difference from placebo ([5]; single 200 mg, 10 hour): -2.67 ms | QTcF change from baseline, LS mean ([5]; single 200 mg, 10 hour): -8.82 ms | QTcF LS mean difference from placebo ([5]; single 200 mg, 12 hour): -3.72 ms | QTcF change from baseline, LS mean ([5]; single 200 mg, 12 hour): -6.82 ms | QTcF LS mean difference from placebo ([5]; single 200 mg, 23.5 hour): 0.38 ms | QTcF change from baseline, LS mean ([5]; single 200 mg, 23.5 hour): -2.15 ms | AUC, mean ± SD ([5]; single 400 mg): 6800 ± 2300 ng·h/mL | Maximum Mean Placebo Corrected Change from Baseline Diastolic BP ([5]; single 400 mg): 3.99 mmHg | Maximum Mean Placebo Corrected Change from Baseline RR interval ([5]; single 400 mg): -162.45 ms | Maximum Mean Placebo Corrected Change from Baseline Systolic BP ([5]; single 400 mg): 3.97 mmHg | QTcF LS mean difference from placebo ([5]; single 400 mg, 0.5 hour): 3.37 ms | QTcF change from baseline, LS mean ([5]; single 400 mg, 0.5 hour): 2.37 ms | QTcF change from baseline, LS mean ([5]; single 400 mg, 1 hour): 4.49 ms | QTcF LS mean difference from placebo ([5]; single 400 mg, 1 hour (maximum)): 4.60 (2.71, 6.48) msec and 4.60 msec | QTcF LS mean difference from placebo ([5]; single 400 mg, 2 hour): 0.81 ms | QTcF change from baseline, LS mean ([5]; single 400 mg, 2 hour): 0.73 ms | QTcF LS mean difference from placebo ([5]; single 400 mg, 3 hour): -1.04 ms | QTcF change from baseline, LS mean ([5]; single 400 mg, 3 hour): -0.30 ms | QTcF LS mean difference from placebo ([5]; single 400 mg, 4 hour): -2.96 ms | QTcF change from baseline, LS mean ([5]; single 400 mg, 4 hour): -2.53 ms | QTcF LS mean difference from placebo ([5]; single 400 mg, 6 hour): -2.70 ms | QTcF change from baseline, LS mean ([5]; single 400 mg, 6 hour): -8.33 ms | QTcF LS mean difference from placebo ([5]; single 400 mg, 8 hour): -3.24 ms | QTcF change from baseline, LS mean ([5]; single 400 mg, 8 hour): -11.60 ms | QTcF LS mean difference from placebo ([5]; single 400 mg, 10 hour): -4.14 ms | QTcF change from baseline, LS mean ([5]; single 400 mg, 10 hour): -10.29 ms | QTcF LS mean difference from placebo ([5]; single 400 mg, 12 hour): -4.00 ms | QTcF change from baseline, LS mean ([5]; single 400 mg, 12 hour): -7.10 ms | QTcF LS mean difference from placebo ([5]; single 400 mg, 23.5 hour): -0.34 ms | QTcF change from baseline, LS mean ([5]; single 400 mg, 23.5 hour): -2.87 ms | effect on QTc or blood pressure ([5]; thorough QT study): no clinically meaningful effect on QTc or blood pressure | Maximum MA4 HR change from baseline, LS mean ([6]; 25 mg once daily): 1.47 bpm | Maximum MA4 HR, Difference from Placebo ([6]; 25 mg once daily): −1.60 bpm | Maximum MA4 HR change from baseline, LS mean ([6]; 50 mg once daily): 1.50 bpm | Maximum MA4 HR, Difference from Placebo ([6]; 50 mg once daily): −1.57 bpm | Maximum MA4 HR change from baseline, LS mean ([6]; 100 mg once daily): 3.28 bpm | Maximum MA4 HR change from baseline, LS mean ([6]; 150 mg once daily): 3.17 bpm | Maximum MA4 HR, Difference from Placebo ([6]; 150 mg once daily): 0.10 bpm | Maximum MA4 HR change from baseline, LS mean ([6]; 200 mg once daily): 5.67 bpm | Maximum MA4 HR, Difference from Placebo ([6]; 200 mg once daily): 2.60 bpm | Maximum MA4 HR change from baseline, LS mean ([6]; 300 mg once daily): 9.06 bpm | Maximum MA4 HR, Difference from Placebo ([6]; 300 mg once daily): 5.98 bpm | Maximum MA4 HR change from baseline, LS mean ([6]; 400 mg once daily): 10.33 bpm | Maximum MA4 HR, Difference from Placebo ([6]; 400 mg once daily): 7.26 bpm | postural dizziness, dose relation ([7]; Phase 1 multiple dose studies): appeared to increase at doses ≥100 mg | treatment-emergent serious adverse events (SAEs) or deaths ([7]; Phase 1 program): no treatment-emergent serious adverse events (SAEs) or deaths reported | incidence of AE orthostatic hypotension with symptoms, dose relation ([7]; Phase 1 studies): higher at vibegron doses greater than 150 mg | laboratory safety parameters and ECG parameters ([7]; preliminary Phase 1 safety data): no clinically meaningful changes | tolerability across the Phase 1 program ([7]; single doses 2 to 600 mg, multiple doses 25 to 400 mg up to 28 days): generally well tolerated | orthostatic AEs on coadministration with metoprolol or amlodipine ([7]; vibegron 100 mg, subjects with essential hypertension): no occurrences of orthostatic AEs | tolerability of vibegron and rifampin ([8]; healthy male and female subjects): well tolerated | CL/F, geometric mean ([8]; Vibegron + Rifampin 600 mg QD): 57.3 L/h | V/F, geometric mean ([8]; Vibegron + Rifampin 600 mg QD): 6140 L | CL/F, geometric mean ([8]; Vibegron alone): 57.2 L/h | V/F, geometric mean ([8]; Vibegron alone): 6930 L | subjects with an AE related to study drug ([8]; vibegron 75 mg and rifampin 600 mg QD): 15%
